Reference: patent US20240342239A1, “TREATMENT OF NON-CYSTIC FIBROSIS BRONCHIECTASIS” (Zambon S.P.A., priority 2021, published 2024)
“Also recorded” adds a separate entry of the source.

Experiments:
NCFB patients = conditions: cited from earlier work
[1] = test system: bronchiectasis patients with P. aeruginosa; conditions: cited from earlier work; for time to first exacerbation compared to placebo: 1 MU twice daily through the I-neb, up to 6 months (PPCTP/001, Haworth 2014)
[2] = test system: subjects with NCFB chronically infected with P. aeruginosa; test: PROMIS 1 Phase III clinical study: NCFB pulmonary exacerbations, inhaled CMS via I-neb vs placebo; type: in vivo, human; conditions: for hazard ratio, time to first NCFB pulmonary exacerbation: CMS vs placebo, Cox proportional hazard model; for rate ratio of CMS relative to placebo, NCFB pulmonary exacerbation annual rate: LS Mean
Procedure: As used herein the term “pulmonary exacerbation” in a patient refers to the presence concurrently of at least 3 of the following 8 symptoms/signs for at least 24 hours: • increased cough; • increased sputum volume and/or consistency; • increased sputum purulence; • new or increased haemoptysis; • increased wheezing; • increased dyspnoea; • increased fatigue/malaise; • episodes of fever (temperature≥38° C.) • and it is clinically determined that the subject requires and is prescribed systemic antibiotic therapy. A new pulmonary exacerbation is only considered to occur if there are at least 14 days between the end of the course of systemic antibiotics and the onset of new qualifying symptoms. (Note: A pulmonary exacerbation is reported as an Adverse Event or serious AE [SAE]).
A “severe” pulmonary exacerbation is herein defined a pulmonary exacerbation requiring intravenous antibiotics and/or hospitalisation.
A supportive analysis has been conducted using an alternative definition of NCFB pulmonary exacerbation. The re-classification of exacerbations has been conducted in a blinded fashion (before database lock). The alternative definition of pulmonary exacerbations used will be deterioration in three or more of the following key symptoms for at least 48 hours: • Cough • Sputum volume and/or consistency • Sputum purulence • Breathlessness and/or exercise tolerance (dyspnoea) • Fatigue and/or malaise • Haemoptysis • And: • a physician determines a change in bronchiectasis treatment is required when other potential causes of clinical deterioration have been discounted.
The number of NCFB pulmonary exacerbations during the treatment period has been analysed using a Poisson regression model allowing for over-dispersion including treatment, pooled sites and use of stable concomitant therapy with oral macrolides as fixed effects and log-time on trial as an offset.
The number and the percentage of subjects with NCFB pulmonary exacerbations, the number of pulmonary exacerbations and the total follow-up time in years have been summarised by treatment group. The adjusted yearly mean exacerbation rates in each treatment group and the adjusted rate ratio with their 95% CIs has been estimated by the model.
For the analysis, 2 pulmonary exacerbations have been considered as a single episode in cases where the second exacerbation starts less than 14 days after the end of the antibiotic therapy (oral or intravenous) for the first pulmonary exacerbation.
The time to the first NCFB pulmonary exacerbation and the time to the first severe NCFB pulmonary exacerbation has been calculated as the time in days from the date of the first dose of IMP to the date at which the first pulmonary exacerbation occurs (i.e. date at which the first pulmonary exacerbation occurs—date of the first dose+1). A […] has been used to compare the treatment groups. Subjects completing the trial without NCFB pulmonary exacerbations or who are discontinued prematurely without exacerbations, will be considered as censored at the time of their last follow-up. […]
The primary variable for this trial is the mean annual NCFB pulmonary exacerbation rate (frequency of pulmonary exacerbations) over 12 months.

Pseudomonas aeruginosa = test: PROMIS 1: P. aeruginosa density in sputum; type: in vivo; conditions: for Mean change from baseline in P. aeruginosa density: mITT
Excerpt: Least square means in each treatment group, least square mean difference between treatments, their 95% CIs and associated p-values have been estimated.
Summary statistics of the P. aeruginosa density (log 10 CFU/g sputum) and change from baseline (Visit 2) will be provided by treatment group for each trial visit.
Results of the quantitative analysis for P. aeruginosa density will be presented as colony forming units (CFU) count per gram sputum.

[3] = test system: subjects with NCFB chronically infected with P. aeruginosa; test: PROMIS 1: quality of life by Saint George's Respiratory Questionnaire (SGRQ); type: in vivo, human; conditions: at the end of the CMS treatment
Excerpt: The SGRQ total score and domain scores (Symptoms, Activity and Impact scores) has been summarised at each visit by treatment group using descriptive statistics. Changes from baseline (Visit 2) have been also summarised for each post-baseline visit by treatment group. Scores have been computed according to the SGRQ manual.
SGRQ total score has been analysed using a linear mixed model for repeated measures including treatment, visit, treatment-by-visit interaction, use of stable concomitant therapy with oral macrolides and pooled sites as fixed effects and baseline value as covariate. An unstructured covariance matrix has been assumed and the Kenward-Roger adjustment has been used for the degrees of freedom. The least square means in each treatment group, the least square mean differences between treatments, their 95% CIs and associated p-values at each visit will be estimated by the model.
It is described e.g. in U.S. Pat. No. 6,367,470.

[4] = sensitivity analysis, alternative definition of exacerbation

O=C(O)c1cn(C2CC2)c2cc(N3CCNCC3)c(F)cc2c1=O [ciprofloxacin]
trial outcome, primary endpoints (NCFB patients; ORBIT-3 and RESPIRE-2 trials): failed to achieve their primary endpoints
trial outcome, time of first exacerbation and rate of exacerbations vs placebo (NCFB patients; ORBIT-4 and RESPIRE-1 trials): showed clinical benefit

colistimethate sodium [CMS]
time to first exacerbation compared to placebo [1]: not statistically different from the placebo group
frequency of adverse respiratory effects (cough, dyspnoea, bronchospasm, sore throat) ([1]; human, in vivo): at least 1 in 10 people
admissions to emergency and days of hospitalization ([1]; observational study, 44 patients, 6 or 12 months, vs period preceding treatment (Lopez Gil Otero 2019)): reduced admissions to emergency and days of hospitalization
subjects with severe NCFB pulmonary exacerbations ([2]; 19/176 subjects): 10.8%
LS mean NCFB pulmonary exacerbation annual rate ([2]; PP Population): 0.491
LS mean rate ratio of CMS relative to placebo ([2]; PP Population): 0.583
reduction in pulmonary exacerbation rate vs placebo ([2]; PP Population): 42%
mean annual exacerbation rate (LS Mean) ([2]; adherent subjects (adherence>80%)): 0.494
median time to first severe NCFB pulmonary exacerbation, 25th and 75th percentile ([2]; human, in vivo): not reached
reduction in the rate of severe pulmonary exacerbations compared to placebo ([2]; human, in vivo): 59%
reduction in the risk of the first exacerbation event compared to placebo ([2]; mITT): 41%
annual rate of exacerbations ([2]; mITT, CMS 1 MIU by I-neb twice a day, 12 months): 0.58 per patient per year
hazard ratio, time to first NCFB pulmonary exacerbation ([2]; mITT): 0.590
hazard ratio, time to first NCFB pulmonary exacerbation ([2]; mITT, listed as CMS I-neb): 0.59
median time to first NCFB pulmonary exacerbation ([2]; mITT, from first dose of IMP): not reached
subjects who experienced a pulmonary exacerbation during the study ([2]; mITT, n=68): 38.6%
reduction in the annual rate of pulmonary exacerbations relative to placebo ([2]; mITT, primary analysis): 39%
rate ratio of CMS relative to placebo, NCFB pulmonary exacerbation annual rate ([2]; mITT, primary analysis): 0.612
rate ratio of CMS relative to placebo, NCFB pulmonary exacerbation annual rate ([2]; mITT, primary analysis, listed as CMS I-neb): 0.61
LS Mean rate ratio, pulmonary exacerbations ([2]; post-hoc analyses with low-recruiting countries combined): 0.591
LS mean NCFB pulmonary exacerbation annual rate ([2]; sensitivity analysis, alternative (ERS 2017) definition of exacerbation, mITT): 0.538
LS mean rate ratio of CMS relative to placebo [2, 4]: 0.642
reduction in pulmonary exacerbation rate vs placebo [2, 4]: 36%
LS Mean severe NCFB pulmonary exacerbation annual rate ([2]; severe = requiring intravenous antibiotics and/or hospitalisation): 0.116
LS Mean rate ratio of CMS relative to placebo, severe exacerbations ([2]; severe NCFB pulmonary exacerbations): 0.409
LS mean difference in P. aeruginosa density, CMS vs placebo (Pseudomonas aeruginosa; after 1 month): −1.620
Mean change from baseline in P. aeruginosa density (Pseudomonas aeruginosa; Visit 3 (28 days)): −1.59 log10(CFU/mL)
Mean change from baseline in P. aeruginosa density (Pseudomonas aeruginosa; Visit 5 (6 months)): −1.39 log10(CFU/mL)
Mean change from baseline in P. aeruginosa density (Pseudomonas aeruginosa; Visit 6 (9 months)): −1.56 log10(CFU/mL)
Mean change from baseline in P. aeruginosa density (Pseudomonas aeruginosa; Visit 7 (12 months/EOT)): −0.86 log10(CFU/mL)
course of P. aeruginosa density under treatment (Pseudomonas aeruginosa; over the study): fell rapidly and remained suppressed; also recorded: falls rapidly and remains suppressed
treatment difference in SGRQ total score by LS means [3]: 4.552

colistin
time to first exacerbation compared to placebo [1]: not to be associated with a statistically significant improvement
